One experiment deals with CCR5. The experiment is described as follows: Macrophage receptor expression by flow cytometry. Format: cell-based, human. Conditions: overnight/24 h; among CD4, CCR5, CXCR4 and CD14 only CCR5 changed (FIG. 8). The method, then: The cells were removed from the culture plate and then resuspended in 100 μl of phosphate-buffered saline (PBS). After incubation with 20 μl of either anti-CCR5-FITC or anti-CXCR4-FITC or anti-CD4-FITC or anti-CD14-FITC for 45 min at 4° C., the cells were washed twice with PBS and fixed with 1% paraformaldehyde in PBS. Fluorescein-conjugated control antibodies were isotype-matched IgG. Fluorescence was analyzed on an EPICS-Elite flow cytometer (Beckman-Coulter Electronics, Hialeah, Fla.).
In general terms: Flow cytometry measures light scatter and fluorescence of single cells or particles in a stream.

The subject of a further experiment is HIV Bal strain. The experiment in a line: HIV RT activity in HIV Bal strain-infected MDM. The experiment is classed as cell-based, HIV-1. The settings on record: for HIV RT activity increased: MDM, 12 days after infection (FIG. 1A). The procedure: The cells were also incubated with SP and/or anti-SP antibody. In this case, SP was incubated with (1:1000 dilution in 10% FCS DMEM) or without anti-SP antibody at room temperature for 10 min and then the mixture was added to the cell cultures for 2 h. When the cells were treated with the combination of CP-96,345 and SP, or CP-96,345, SP and anti-SP antibody, CP-96,345 was incubated with the cell culture for 10 min and then SP was added to the MDM or CP-96,345, SP and anti-SP (1:1000 in 10% FCS DMEM) were incubated for 10 min at room temperature and the mixture was incubated with the MDM for 2 h before infection with HIV. Untreated MDM served as controls. The cells were treated prior to, during, and throughout the infection.
HIV Infection: After 2 h incubation with or without the reagents described above, the cells were infected with equal amounts of cell-free HIV based on p24 antigen content (20 ng/10^6 cells) overnight, and then washed to remove unbound virus. Fresh media containing SP and/or CP-96,345 or anti-SP antibody were added to the MDM as described above. The culture media and the reagents were replaced twice weekly. The culture supernatants were harvested for HIV reverse transcriptase (RT) activity determinations. After HIV infection, the MDM were incubated for 8 to 12 days. At the termination of the experiments, cellular RNA was extracted for assessment of HIV gag gene expression using RT-PCR or real time RT-PCR assays.
The HIV RT activity assay was carried out based on the technique of Willey et al. (30) with modification (22).

A further experiment has as its system HIV LTR promoter. The experiment is described as follows: HIV LTR-driven CAT activity assay in U38 cells. The experiment is classed as cell-based. The source says:
ACH-2 and U38 cell lines (25, 26) were obtained from the NIH AIDS Reagent Program. DNA extracted from ACH-2 cells was used as a positive standard for HIV DNA PCR as previously reported (27). The U38 cell line contains stably integrated, silent copies of the HIV LTR (long terminal repeat) promoter linked to a CAT (chloramphenicol acetyltransferase) gene and was used to study the effect of SP and/or CP-96,345 and R-113281 on the activation of HIV LTR promoter.
Chloramphenicol acetyltransferase (CAT) activity assay:U38 cells (2×10^6 cells) were incubated with different concentrations of SP and/or CP-96,345 or R-113281 for 48 h. Untreated U38 cells were used as a background control. Cellular proteins were extracted using 1× Reporter Lysis Bufffer (Promega Corp., Madison, Wis.). The lysates were incubated with a mixture containing 0.15 μCi of ^14C-labeled chloramphenicol (DuPont Inc., Boston, Mass.) and 200 μg/ml of n-Butyryl CoA (Promega Corp., Madison, Wis.) in a total volume of 125 μl at 37° C. for 3 h. The acetylated forms of chloramphenicol were extracted with xylene (Aldrich Chemical Company, Milwaukee, Wis.). CAT activity of each sample was quantified using a liquid-scintillation counter (Packard Instrument Company, Downers Grove, Ill.). The results were expressed as the ratio of CAT activity (CPM) of the SP and/or CP-96,345-treated or R-113281-treated U38 to that of the background control.

Turning to `COc1ccccc1CN[C@H]1C2CCN(CC2)[C@H]1C(c1ccccc1)c1ccccc1` [CP-96,344], the “CCR5 receptor expression on MDM (percentage positive cells)” value in the experiment with CCR5 was “did not affect”. In addition, in the experiment with HIV Bal strain (10^−7M, 8 days after infection (FIG. 4)), the “viral replication by HIV RT activity vs HIV infection control” value is listed as “did not have the effect”.

Consider Substance P [SP], for which the “HIV LTR-driven CAT activity vs untreated baseline” value in the experiment on HIV LTR promoter (SP 10^−5M, 48 hours (FIG. 16)) is “significantly increases”. Also, the “HIV LTR-driven CAT activity vs untreated control cells” value with HIV LTR promoter (SP 10^−10 to 10^−6M, 48 h, P<0.05 (FIG. 7)) is “significantly increased”. Also, the “effect of SP alone on HIV replication (RT activity and gag mRNA)” value in the experiment with HIV Bal strain (SP 10^−6M, 12 days after infection (FIG. 5)) is “enhanced HIV replication”. The entries for the “HIV RT activity increased” value in the experiment with HIV Bal strain (SP 10^−6M), in the experiment with HIV Bal strain (SP 10^−8M) and in the experiment with HIV Bal strain (SP 10^−10M) were 58%, 40% and 14%, respectively.

The values are drawn from patent US20020094524A1, “Compositions and methods for inhibiting HIV infection” (priority 2000, published 2002).
